Structures can show the parent of a compound that is named as a salt. Where two headings read alike, the source gives them in different places.
Key:
[1] = PK test of in vivo efficacy: plasma and tumor tissue drug concentration on day 20 of the CT26 study; design: species or system BALB/C mice; settings: mouse; for concentration at 1 h / concentration at 4 h / Kp at 4 h / Kp at 1 h: oral; for concentration at 1 h / Kp at 1 h: time point 1 h; for concentration at 1 h / concentration at 4 h: tumor tissue; for concentration at 4 h / Kp at 4 h: time point 4 h; for AUC(0-t) / Cmax / Tmax / half-life: plasma, po, day 20; for half-life: read-out: T½ (converted); for Kp at 4 h / Kp at 1 h: tumor tissue / plasma, read-out: T/P* Ratio (tumor tissue / plasma drug concentration)
Experimental: The experiment was conducted on the basis of experimental example 3, on the 20th day after administration, blood samples and tissues were collected from each group at different time points (0 h, 0.25 h, 0.5 h, 1 h, 2 h, 4 h, 8 h and 24 h) after administration.

[2] = tested on: mouse colon cancer CT26 cells; assay: In vivo pharmacodynamic test, CT26 subcutaneous tumor model, alone or combined with CS1003; design: species or system BALB/C mice; settings: for tumor inhibition rate: day 20
Experimental: Experimental materials: BALB/C mice (female); mouse colon cancer CT26 cells (Typical Culture Preservation Commission cell bank, Chinese Academy of Sciences) were cultured in vitro in monolayer with RPMI-1640 medium containing 10% fetal bovine serum in a 37° C., 5% CO2 incubator. Trypsin-EDTA was used for routine digestion and passage. When the cells were in exponential growth phase and the saturation was 80%-90%, the cells were collected and counted.
Compound preparation: Embodiment 19 was weighted and added into the menstruum (10% PEG400+90% (10% Cremophor aqueous solution)) to prepare samples of 2.5 mg/mL, 5 mg/mL and 10 mg/mL respectively. 72 μL CS1003 (PD-1 antibody) solution (25 mg/mL) was taken and 1.728 mL Dulbecco's phosphate buffer (DPBS) was added to prepare a 1 mg/mL solution, then 16.2 mL DPBS was added to prepare a 0.1 mg/mL clear solution.
Experimental operation: the cells were resuspended in Dulbecco's phosphate buffer at a density of 3×10^6 cells/mL. 0.1 mL DPBS (containing 3×10^5 CT26 cells) was subcutaneously inoculated on the right back of each mouse. On the day of inoculation, the mice were randomly divided into groups with 9 mice each group according to the weight of the mice, then administration was started and continued for 20 days. During the whole experiment, the animals were weighed and the animal's health was monitored every day, in case of any special situation, the person in charge of the relevant project would be informed in time and the corresponding records would be made. Tumor diameter was measured twice a week with a vernier caliper. The calculation formula of the tumor volume was: V=0.5×a×b^2, wherein a and b represent the long and short diameters of the tumor respectively.
The antitumor effect of the compounds was evaluated by GI (%) or relative tumor proliferation rate T/C (%). Relative tumor proliferation rate T/C (%)=Vt/VC×100% (Vt: average tumor volume of treatment group; Vc: average tumor volume of negative control group). Vt and VC were the data on the same day. GI (%), tumor inhibition rate. GI (%)=1−Vt/VC×100%.
Statistical analysis was conducted using SPSS software based on the relative tumor volume and tumor weight at the end of the experiment. […] P<0.05 was considered as significant difference.

[3] = BALB/C, 50 mg/kg, Group 7, 50 mpk twice a day alone
[4] = BALB/C, 100 mg/kg, Group 3, 100 mpk alone
[5] = BALB/C, 25 mg/kg, Group 4: 25 mg/kg once a day PO + CS1003 1 mg/kg
[6] = BALB/C, 50 mg/kg, Group 5: 50 mg/kg once a day PO + CS1003 1 mg/kg
[7] = BALB/C, 50 mg/kg, Group 7: 50 mg/kg twice a day PO alone
[8] = BALB/C, 50 mg/kg, Group 8: 50 mg/kg twice a day PO + CS1003 1 mg/kg
[9] = BALB/C, 100 mg/kg, Group 3: 100 mg/kg once a day PO alone
[10] = BALB/C, 100 mg/kg, Group 6: 100 mg/kg once a day PO + CS1003 1 mg/kg
[11] = BALB/c, 50 mpk, Group 5, 50 mpk once a day + CS1003
[12] = BALB/c, 100 mpk, Group 3, 100 mpk alone
[13] = BALB/c, 100 mpk, Group 6, 100 mpk + CS1003

concentration at 1 h [1, 3]: 3.69 µM
concentration at 4 h [1, 3]: 0.901 µM
concentration at 1 h [1, 4]: 17.5 µM
concentration at 4 h [1, 4]: 10.6 µM
AUC(0-t) [1, 5]: 23.5 µM·h
Cmax [1, 5]: 32.2 µM
Tmax [1, 5]: 30 min
half-life [1, 5]: 65.4 min
AUC(0-t) [1, 6]: 70.6 µM·h
Cmax [1, 6]: 57.2 µM
Tmax [1, 6]: 15 min
half-life [1, 6]: 63 min
AUC(0-t) [1, 7]: 42 µM·h
Cmax [1, 7]: 30.1 µM
Tmax [1, 7]: 30 min
AUC(0-t) [1, 8]: 77.9 µM·h
Cmax [1, 8]: 47.1 µM
Tmax [1, 8]: 30 min
half-life [1, 8]: 95.4 min
AUC(0-t) [1, 9]: 145 µM·h
Cmax [1, 9]: 114 µM
Tmax [1, 9]: 15 min
half-life [1, 9]: 48.6 min
AUC(0-t) [1, 10]: 125 µM·h
Cmax [1, 10]: 132 µM
Tmax [1, 10]: 15 min
half-life [1, 10]: 39.3 min
Kp at 4 h [1, 3]: 9.8
Kp at 4 h ([1]; BALB/c, 25 mpk, Group 4, 25 mpk + CS1003): 0.9
Kp at 1 h [1, 11]: 0.4
Kp at 4 h [1, 11]: 1.8
Kp at 1 h ([1]; BALB/c, 50 mpk, Group 7, 50 mpk twice a day alone): 0.7
Kp at 4 h ([1]; BALB/c, 50 mpk, Group 8, 50 mpk twice a day + CS1003): 36
Kp at 1 h [1, 12]: 0.6
Kp at 4 h [1, 12]: 0.9
Kp at 1 h [1, 13]: 0.5
Kp at 4 h [1, 13]: 4.2
Structure (SMILES): Nc1nc(-c2ccc(F)cc2)c(-c2ccc3ncnn3c2)c2nccnc12 [Embodiment 6 hydrochloride]
tumor inhibition rate ([2]; 25 mg/kg once a day combined with 1 mg/kg CS1003, p<0.001): 63.16%
tumor volume ([2]; 25 mg/kg once a day intragastric combined with 1 mg/kg CS1003, end of experiment (day 20)): 312.06+80.17 mm^3
tumor inhibition rate ([2]; 50 mg/kg once a day combined with 1 mg/kg CS1003, p<0.001): 70.90%
tumor volume ([2]; 50 mg/kg once a day intragastric combined with 1 mg/kg CS1003, end of experiment (day 20)): 246.48+62.57 mm^3
tumor inhibition rate ([2]; 50 mg/kg twice a day in combination with CS1003, P<0.001): 83.22%
average tumor volume ([2]; 50 mg/kg twice a day intragastric in combination with CS1003, end of experiment (day 20)): 142.17+40.30 mm^3
tumor inhibition rate ([2]; 100 mg/kg once a day combined with 1 mg/kg CS1003, p<0.001): 72.48%
tumor volume ([2]; 100 mg/kg once a day intragastric combined with 1 mg/kg CS1003, end of experiment (day 20)): 233.10+59.55 mm^3

Reference: US11312715B2, “Fused ring derivative as A2A receptor inhibitor” (CSTONE PHARMACEUTICALS (SUZHOU) CO., LTD., priority 2017, dated 2022)
